Results published in US20210275480A1, “COMPOSITIONS AND METHODS FOR THE REDUCTION OR TREATMENT OF FIBROSIS” (AXCELLA HEALTH INC., priority 2018, published 2021).

Tests used:
[1] = system: procollagen Iα1 secretion, primary human hepatic stellate cells; experiment: Procollagen Iα1 secretion by TGFβ1-stimulated primary human hepatic stellate cells, ELISA; assay type: cell-based; settings: primary human hepatic stellate cells, three healthy donors, TGFβ1 3 ng/mL 24 h; summary in words
Protocol: (§1) Primary human hepatic stellate cells were obtained from Samsara Sciences. Cells were grown in Complete HSC Medium to ˜80% confluence in T75 or T150 flasks below passage 10 were seeded into sterile, collagen I coated, 96-well optical plastic microplates (ThermoScientific, 152036) and incubated overnight at 37° C., 5% CO2 in a humidified incubator in DMEM with 2% Fetal Bovine Serum and 1% Antibiotic-Antimycotic. After the overnight incubation, plates are washed and pretreated with medium±single amino acid dropout, 1×HMDB DMEM±supplemental amino acid dose for 10.5 hours. After 10.5 hour pretreatment, the same pretreatment medium supplemented with 3 ng/mL TGFβ1, was applied and incubated for 24 hours at 37° C., 5% CO2. After 24 hour stimulus, supernatant was removed, RNA was extracted and gene expression was evaluated using the ΔΔCq method within each single amino acid dropout and supplementation by normalizing to its own 1×HMDB concentration.
Human Procollagen 1α1 was measured from the supernatant by ELISA (Human ProCollagen I alpha 1 DuoSet ELISA, R&D Systems) at 1/100 dilution in 1× Reagent Diluent (Reagent Ancillary Kit 2, R&D Systems).
Tables 32, 33, 33-1, 33-2, 33-3, and 33-4 show the fold change in procollagen Iα1 in primary human hepatic stellate cells from three different healthy donors normalized to their respective baseline amino acid conditions. Statistical significance calculated by one-way

[2] = system: LX-2 hepatic stellate cells; experiment: TGFβ1-induced fibrogenic gene expression (Col1a1, Acta2, Timp2) in LX-2 hepatic stellate cells, qPCR; assay type: cell-based, human
From the text: Hepatic stellate cells in a healthy liver are in the space of Disse, between the hepatocytes and liver sinusoidal endothelial cells. In response to liver injury hepatic stellate cells become activated, proliferative and contractile, increase production of aSMA, secretion of type I and III collagens and specific MMP and TIMP proteins. LX-2 cells were selected as a model of activated hepatic stellate cells and used to test whether specific amino acid compositions would reduce fibrogenic gene expression induced with TGFβ1.
LX-2 hepatic stellate cells (Millipore) were seeded on day 0 at 1.67E4 cells per well in collagen I coated 96-well microplates (ThermoFisher) in Dulbecco's Modified Eagle Medium (DMEM, Corning) supplemented with 2% heat inactivated fetal bovine serum (HI-FBS, HyClone) and 0.2% Primocin (InVivoGen) and incubated overnight at 37° C., 5% CO2. […] Combinations containing N-acetylcysteine were dosed with 10 mM. Cells were pretreated for 6 hours at 37° C., 5% CO2. After pretreatment, TGFβ1 (R&D Systems) or vehicle was spiked into each well for a final concentration of 5 ng/mL and cells were incubated under this stimulus for a further 12 hours at 37° C., 5% CO2.
After 12 hour incubation, RNA extraction and quantitative PCR was conducted on lysates to determine collagen-1a1 expression normalized to β-actin housekeeping expression using the ΔΔCt method using TaqMan primer probes (Integrated DNA Technologies: Col1A1, Hs.PT.58.15517795; Actb, Hs.PT.39a.22214847; Acta2, Hs.PT.56a.24853961; Timp2, Hs.PT.58.14780594).

[3] = system: Col1a1 gene expression, primary human hepatic stellate cells; experiment: Col1a1 gene expression in TGFβ1-stimulated primary human hepatic stellate cells; assay type: cell-based; settings: primary human hepatic stellate cells, three healthy donors, TGFβ1 3 ng/mL 24 h; summary in words
Protocol: as §1

[4] = system: Hsp47 gene expression, primary human hepatic stellate cells; experiment: Hsp47 gene expression in TGFβ1-stimulated primary human hepatic stellate cells; assay type: cell-based; settings: primary human hepatic stellate cells, three healthy donors, TGFβ1 3 ng/mL 24 h; summary in words
Protocol: Primary human hepatic stellate cells were obtained from Samsara Sciences based on the following criteria for selecting donors: adult age (between 18 and 50 years), normal BMI (>18.5 and <25), and absence of confounding liver disease. Cells grown in Complete HSC Medium to ˜80% confluence in T75 or T150 flasks below passage 10 were seeded into sterile, collagen I coated, 96-well optical plastic microplates (ThermoScientific, 152036) at 6000 cells per well (1250 cells per cm2) and incubated overnight at 37° C., 5% CO2 in a humidified incubator in DMEM with 2% Fetal Bovine Serum and 1% Antibiotic-Antimycotic.
After the overnight incubation, plates were removed from the incubator and the medium was gently pipetted off and washed twice with 150 μL per well DPBS. The DPBS was removed and the pretreatment medium (±single amino acid dropout, 1×HMDB DMEM+1% Antibiotic-Antimycotic, 10 mM HEPES, ±supplemental amino acid dose; see experiment for medium composition) was applied to the cells at 150 μL per well. Plates were returned to the incubator for 10.5 hours.
After 10.5 hour pretreatment, the medium was removed from the cells, and the same pretreatment medium, now supplemented with 3 ng/mL TGFβ1, was applied. Each plate contained 3 ng/mL TGFβ1 in 1× human plasma amino acid (HMDB or PAA) concentration medium, 0 ng/mL in 1×HMDB, and 3 ng/mL TGFβ1+20 μM Silybin in 1×HMDB to serve as controls. Plates were then incubated for 24 hours at 37° C., 5% CO2.
After 24 hour stimulus, supernatant was removed and frozen at −80° C. in two separate aliquots. The cells were then washed with 125 μL per well Buffer FCW (FastLane Cell Multiplex NR Kit, Qiagen, 216713). The wash buffer was immediately removed and 50 μL of Cell Processing Mix (containing genomic DNA Wipeout buffer) was applied to lyse cells, incubating for 10 minutes at room temperature. RNA lysate was then transferred to 96-well qPCR plates, sealed, and gDNA was digested on thermal cycler at 75° C. for 5 minutes. RNA lysate was frozen at −80° C.
Each 20 μL one-step RT-qPCR reaction contained 4 μL of RNA lysate. Gene expression of Hsp47, and Gapdh were multiplexed using the HEX, and FAM fluorescent channels, respectively, with commercially available primer-probe mixes (the Human Hsp47 Primer-Probe Set, HEX; and the Human Gapdh Primer-Probe Set, FAM from IDT). Gene expression was evaluated using the ΔΔCq method within each single amino acid dropout and supplementation by normalizing to its own 1×HMDB concentration.

[5] = LX-2 cells with TGFβ1, individual amino acid at 1X HMDB derived concentration
[6] = LX-2 cells with TGFβ1, individual amino acid at 50X HMDB derived concentration
[7] = LX-2 cells, TGFβ1 5 ng/mL 12 h, combinations at 40× HMDB, N-acetylcysteine 10 mM, normalized to β-actin

SMILES: N=C(N)NCCC[C@H](N)C(=O)O [ARG, arginine]
- procollagen Iα1 secretion [1]: significantly increased procollagen Iα1 secretion in two of three donors
- Col1a1 gene expression, mean [2, 5]: 1.620
- Col1a1 gene expression, mean [2, 6]: 1.970
- Col1a1 gene expression [3]: did not significantly change
- Hsp47 gene expression [4]: significantly increased Hsp47 gene expression in two of three donors

SMILES: N[C@@H](CS)C(=O)O [CYS, cysteine]
- Col1a1 gene expression, mean [2, 5]: 2.491
- Col1a1 gene expression, mean [2, 6]: 1.695
- Col1a1 gene expression, mean ([2]; LX-2 cells with TGFβ1, individual amino acid at 50X HMDB derived concentration, listed as cysteine): significant decrease

SMILES: NC(=O)CC[C@H](N)C(=O)O [GLN, glutamine]
- Col1a1 gene expression, mean [2, 5]: 2.340
- Col1a1 gene expression, mean [2, 6]: 2.194
- Hsp47 gene expression [4]: significantly increased Hsp47 gene expression in one of three donors

SMILES: CC(C)C[C@H](N)C(=O)O [LEU, leucine]
- Col1a1 gene expression, mean [2, 5]: 1.901
- Col1a1 gene expression, mean [2, 6]: 2.372
- Hsp47 gene expression [4]: did not significantly change

SMILES: CC(=O)N[C@@H](CS)C(=O)O [NAC, N-acetylcysteine]
- procollagen Iα1 secretion [1]: significantly decrease procollagen Iα1 secretion in two of the three donors
- Acta2 gene expression, mean [2, 7]: 0.647
- Timp2 gene expression, mean [2, 7]: 1.076
- Col1a1 gene expression, mean ([2]; LX-2 cells, TGFβ1 5 ng/mL 12 h, combinations at 40× HMDB, N-acetylcysteine 10 mM, normalized to β-actin (ΔΔCt)): 1.659
- Col1a1 gene expression, mean ([2]; LX-2 cells, TGFβ1 5 ng/mL 12 h, combinations at 40× HMDB, N-acetylcysteine 10 mM, normalized to β-actin (ΔΔCt), listed as N-acetylcysteine): reduced
- Timp2 gene expression, mean ([2]; LX-2 cells, TGFβ1 5 ng/mL 12 h, combinations at 40× HMDB, N-acetylcysteine 10 mM, normalized to β-actin, listed as N-acetylcysteine): reduced
- Col1a1 gene expression [3]: significantly reduced Col1a1 gene expression in all three donors
